Test results taken from patent publication US6569631B1, “Microplate thermal shift assay for ligand development using 5-(4″dimethylaminophenyl)-2-(4′-phenyl)oxazole derivative fluorescent dyes” (3-Dimensional Pharmaceuticals, Inc., priority 1998, dated 2003).

Assays:
[1] = molecular target: T1, heparin binding site of human α-thrombin (Homo sapiens, UniProt P00734); assay: Microplate thermal shift assay, ligands binding to the heparin binding site, turbidity signal
T1 construct: A stock human α-thrombin solution (1.56 mg/mL) from Enzyme Research Labs; purchased Enzyme Research Labs
Description: Assays for ligands that bind to the heparin binding site of human α-thrombin are more difficult to perform than assays for ligands that bind to the active site of human α-thrombin. At the heparin binding site, no substrate is hydrolyzed, so no spectrophotometric signal can be amplified for instrumental detection. Heparin activity is usually estimated in biological clotting time assays. […] Thus, heparin binding to human α-thrombin represents the kind of challenge encountered with the vast majority of non-enzyme receptor/ligand binding events, which are commonly observed for hormone/receptor interactions, repressor/DNA interactions, neurotransmitter/receptor interactions, etc. Several heparin-like sulfated oligosaccharides and sulfated naphthalene compounds were assayed by the microplate thermal shift assay. Using the thermal shift assay, it was possible to use a single compound per well to quickly rank the compounds in order of increasing binding affinity, with Kd's ranging over three orders of magnitude (see Table 4). Like the experiment in Example 1, the thermal shift assay results agreed closely with the results obtained through an alternative method, which required a series of laborious (15 to 20 single determinations) fluorescence quench assays over a wide range of concentrations of low MW heparin (Olson, S. T. et al., J. Biol. Chem. 266:6342-6352 (1991)).

[2] = molecular target: T2, acidic fibroblast growth factor (aFGF) (Homo sapiens, UniProt P05230); assay: Microplate thermal shift assay for ligands binding to aFGF, turbidity signal; conditions: turbidity signal; aFGF 0.25 mg/mL; ligand 47-200 μM
T2 construct: host or cells: E. coli
Description: The second therapeutic receptor tested in the microplate thermal shift assay was acidic fibroblast growth factor (aFGF), a growth factor that plays a key role in angiogenesis (Folkman, J. et al., J. Biol. Chem. 267:1.0931-10934 (1992)). A synthetic gene for this protein was purchased from R&D Systems (Minneapolis, Minn.), and was cloned and expressed in E. coli using methods similar to those described for basic fibroblast growth factor (bFGF) (Thompson, L. D. et al., Biochemistry 33:3831-3840 (1994); Pantoliano, M. W. et al., Biochemistry 33:10229-10248 (1994); Springer, B. A. et al., J. Biol. Chem. 269:26879-26884 (1994)). Recombinant aFGF was then purified by heparin-sepharose affinity chromatography as described (Thompson, L. D. et al., Biochemistry 33:3831-3840 (1994)). aFGF is also known to bind heparin/heparan, which is a cofactor for mitogenic activity. […] A microplate thermal assay of these compounds was set up in a way similar to that described above for human α-thrombin. […] The affinity constants covered a fairly broad range of binding affinities, with pentosan PSO4 showing the highest affinity.

[3] = system: D(II) domain of fibroblast growth factor receptor 1 (FGFR1); assay: Microplate thermal shift assay for ligands binding to D(II) FGFR1, fluorescence emission signal; parameters: species or system human; conditions: D(II) FGFR1 70 μM; 136 μM ANS; ligand 150-156 μM
Description: The microplate thermal-shift assay was employed to test the binding of heparin 5000 and pentosan PSO4 to the known heparin binding site in the D(II) domain of fibroblast growth factor receptor 1 (FGFR1). D(II) FGFR1 is a 124 residue domain which is responsible for most of the free energy of binding for bFGF. D(II) FGFR1 was cloned and expressed in E. coli. Recombinant D(II) FGFR1 was renatured from inclusion bodies essentially as described (Wetmore, D. R. et al., Proc. Soc. Mtg., San Diego, Calif. (1994)), except that a hexa-histidine tag was included at the N-terminus to facilitate recovery by affinity chromatography on a Ni^2+ chelate column (Janknecht, R. et al., Natl. Acad. Sci. USA 88:8972-8976 (1991)). D(II) FGFR1 was further purified on a heparin-sepharose column (Kan, M. et al., Science 259:1918-1921 (1993); Pantoliano, M. W. et al., Biochemistry 33:10229-10248 (1994)). […]
The D(II) FGFR1 protein was dissolved in an ANS solution to a concentration of 1.0 mg/mL (70 μM). […] Because ANS fluorescence is very environment dependent (see Lakowicz, I. R., Principles of Fluorescence Spectroscopy, Plenum Press, New York (1983)), the quantum yield observed for the denaturation of different proteins will vary. […] A similar result was obtained for Factor Xa, except that the fluorescence quantum yield for ANS bound to denatured Factor Xa was almost as good as it was for human α-thrombin.

bFGF = bFGF (Homo sapiens, UniProt P09038); conditions: read-out: affinity for binding to bFGF by isothermal titrating calorimetry; cited from earlier work
[4] = many described as coagulation anomalies; cited from earlier work

Sequence of bFGF (P09038 134-288): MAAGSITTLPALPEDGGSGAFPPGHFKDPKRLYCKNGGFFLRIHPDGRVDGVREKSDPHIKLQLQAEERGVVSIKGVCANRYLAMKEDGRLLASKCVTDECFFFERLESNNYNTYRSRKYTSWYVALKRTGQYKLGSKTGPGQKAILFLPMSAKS
T2 sequence (P05230 whole entry, species assumed): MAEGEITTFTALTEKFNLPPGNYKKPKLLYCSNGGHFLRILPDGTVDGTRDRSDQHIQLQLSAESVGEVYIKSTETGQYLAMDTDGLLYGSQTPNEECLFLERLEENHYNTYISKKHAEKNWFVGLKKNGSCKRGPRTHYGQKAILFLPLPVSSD
Sequence of D(II) domain of fibroblast growth factor receptor 1 (FGFR1) (P11362 158-246 limits assumed): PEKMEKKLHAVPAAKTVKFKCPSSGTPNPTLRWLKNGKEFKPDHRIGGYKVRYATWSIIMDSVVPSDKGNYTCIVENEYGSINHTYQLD

affinity at Tm higher than the affinity of heparin 5000 ([1]; thermal shift assay, Table 4): 7 fold
Tm ([1]; turbidity signal, 11 μM thrombin, ligand 40-102 μM): 332.15 °K
Tm [2]: 336.15 °K
Tm [3]: 319.4 °K
Substance: pentosan polysulfate [Pentosan PSO4]
Kd (bFGF): 0.088 µM
outcome of clinical trials for antiangiogenic activity [4]: discounted due to toxic effects
